Measured values: PubChem BioAssay (NCI)
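Five compound concentrations were applied to cells in 96-well plates for 48 hours; endpoints were derived by simple linear interpolation of the resulting dose-response curve. Here, GI50 denotes the concentration required for 50% inhibition of growth. Definition used: TGI = concentration required for complete inhibition of growth.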

How the values were obtained:
Test in all cases: DTP human tumour cell line panel, 48 h
786-0 renal = test system: 786-0 renal
A498 renal = test system: A498 renal
A549 NSCLC = test system: A549 NSCLC
ACHN renal = test system: ACHN renal
BT-549 breast = test system: BT-549 breast
CAKI-1 renal = test system: CAKI-1 renal
CCRF-CEM leukemia = test system: CCRF-CEM leukemia
COLO 205 colon = test system: COLO 205 colon
DU-145 prostate = test system: DU-145 prostate
EKVX NSCLC = test system: EKVX NSCLC
HCC-2998 colon = test system: HCC-2998 colon
HCT-116 colon = test system: HCT-116 colon
HCT-15 colon = test system: HCT-15 colon
HL-60(TB) leukemia = test system: HL-60(TB) leukemia
HOP-62 NSCLC = test system: HOP-62 NSCLC
HOP-92 NSCLC = test system: HOP-92 NSCLC
HS 578T breast = test system: HS 578T breast
HT29 colon = test system: HT29 colon
IGROV1 ovarian = test system: IGROV1 ovarian
K-562 leukemia = test system: K-562 leukemia
KM12 colon = test system: KM12 colon
LOX IMVI melanoma = test system: LOX IMVI melanoma
M14 melanoma = test system: M14 melanoma
MALME-3M melanoma = test system: MALME-3M melanoma
MCF7 breast = test system: MCF7 breast
MDA-MB-231 breast = test system: MDA-MB-231 breast
MDA-MB-435 = test system: MDA-MB-435
MOLT-4 leukemia = test system: MOLT-4 leukemia
NCI-H226 lung = test system: NCI-H226 lung
NCI-H460 lung = test system: NCI-H460 lung
NCI-H522 lung = test system: NCI-H522 lung
NCI/ADR-RES ovarian = test system: NCI/ADR-RES ovarian
OVCAR-3 ovarian = test system: OVCAR-3 ovarian
OVCAR-4 ovarian = test system: OVCAR-4 ovarian
OVCAR-5 ovarian = test system: OVCAR-5 ovarian
OVCAR-8 ovarian = test system: OVCAR-8 ovarian
PC-3 prostate = test system: PC-3 prostate
RPMI-8226 leukemia = test system: RPMI-8226 leukemia
RXF 393 renal = test system: RXF 393 renal
SF-268 CNS = test system: SF-268 CNS
SF-295 CNS = test system: SF-295 CNS
SF-539 CNS = test system: SF-539 CNS
SK-MEL-2 melanoma = test system: SK-MEL-2 melanoma
SK-MEL-28 melanoma = test system: SK-MEL-28 melanoma
SK-MEL-5 melanoma = test system: SK-MEL-5 melanoma
SK-OV-3 ovarian = test system: SK-OV-3 ovarian
SN12C renal = test system: SN12C renal
SNB-19 CNS = test system: SNB-19 CNS
SNB-75 CNS = test system: SNB-75 CNS
SR leukemia = test system: SR leukemia
SW-620 colon = test system: SW-620 colon
T-47D breast = test system: T-47D breast
TK-10 renal = test system: TK-10 renal
U251 CNS = test system: U251 CNS
UACC-257 melanoma = test system: UACC-257 melanoma
UACC-62 melanoma = test system: UACC-62 melanoma
UO-31 renal = test system: UO-31 renal

## COc1cc(OC)c(S(N)(=O)=O)cc1C(=O)/C=C/c1ccccc1
786-0 renal
  GI50: 4.82 µM
  TGI: 20.8 µM
A498 renal
  GI50: 16.9 µM
  TGI: 30.7 µM
A549 NSCLC
  GI50: 10.5 µM
  TGI: 22.7 µM
ACHN renal
  GI50: 7 µM
  TGI: 20.1 µM
BT-549 breast
  GI50: 2.65 µM
  TGI: 14.1 µM
CAKI-1 renal
  GI50: 1.86 µM
  TGI: 15.6 µM
CCRF-CEM leukemia
  GI50: 3.93 µM
  TGI: 67.2 µM
COLO 205 colon
  GI50: 10.6 µM
  TGI: 24 µM
DU-145 prostate
  GI50: 1.88 µM
  TGI: 13.9 µM
EKVX NSCLC
  GI50: 14.2 µM
  TGI: 27.6 µM
HCC-2998 colon
  GI50: 12.5 µM
  TGI: 26.2 µM
HCT-116 colon
  GI50: 1.49 µM
  TGI: 14.8 µM
HCT-15 colon
  GI50: 3.55 µM
  TGI: 20.1 µM
HL-60(TB) leukemia
  GI50: 2.27 µM
  TGI: 23.2 µM
HOP-62 NSCLC
  GI50: 9.51 µM
  TGI: 22.6 µM
HOP-92 NSCLC
  GI50: 2.06 µM
  TGI: 12 µM
HS 578T breast
  GI50: 5.89 µM
  TGI: 43.3 µM
HT29 colon
  GI50: 4.02 µM
  TGI: 13.8 µM
IGROV1 ovarian
  GI50: 9.74 µM
  TGI: 27.6 µM
K-562 leukemia
  GI50: 1.5 µM
  TGI: 22.3 µM
KM12 colon
  GI50: 3.31 µM
  TGI: 18.5 µM
LOX IMVI melanoma
  GI50: 0.335 µM
  TGI: 12.4 µM
M14 melanoma
  GI50: 7.51 µM
  TGI: 23.8 µM
MALME-3M melanoma
  GI50: 13.9 µM
  TGI: 29.3 µM
MCF7 breast
  GI50: 0.97 µM
  TGI: 14.2 µM
MDA-MB-231 breast
  GI50: 11.9 µM
  TGI: 27 µM
MDA-MB-435
  GI50: 2.12 µM
  TGI: 12 µM
MOLT-4 leukemia
  GI50: 10.1 µM
  TGI: 43.1 µM
NCI-H226 lung
  GI50: 10 µM
  TGI: 26.4 µM
NCI-H460 lung
  GI50: 1.95 µM
  TGI: 12.5 µM
NCI-H522 lung
  GI50: 6.56 µM
  TGI: 20.8 µM
NCI/ADR-RES ovarian
  GI50: 15.5 µM
  TGI: 57.6 µM
OVCAR-3 ovarian
  GI50: 2.71 µM
  TGI: 13.1 µM
OVCAR-4 ovarian
  GI50: 11.8 µM
  TGI: 25.7 µM
OVCAR-5 ovarian
  GI50: 13.2 µM
  TGI: 26.7 µM
OVCAR-8 ovarian
  GI50: 11.3 µM
  TGI: 24.1 µM
PC-3 prostate
  GI50: 5.95 µM
  TGI: 20.6 µM
RPMI-8226 leukemia
  GI50: 2.98 µM
  TGI: 21.4 µM
RXF 393 renal
  GI50: 1.9 µM
  TGI: 7.74 µM
SF-268 CNS
  GI50: 5.88 µM
  TGI: 22.9 µM
SF-295 CNS
  GI50: 15.7 µM
  TGI: 30.3 µM
SF-539 CNS
  GI50: 2.44 µM
  TGI: 8.98 µM
SK-MEL-2 melanoma
  GI50: 12.6 µM
  TGI: 26.5 µM
SK-MEL-28 melanoma
  GI50: 12.5 µM
  TGI: 25.3 µM
SK-MEL-5 melanoma
  GI50: 17.6 µM
  TGI: 32.4 µM
SK-OV-3 ovarian
  GI50: 14.4 µM
  TGI: 27.6 µM
SN12C renal
  GI50: 3.49 µM
  TGI: 16.9 µM
SNB-19 CNS
  GI50: 14 µM
  TGI: 28.5 µM
SNB-75 CNS
  GI50: 2.08 µM
  TGI: 7.32 µM
SR leukemia
  GI50: 1.73 µM
  TGI: 24.8 µM
SW-620 colon
  GI50: 2.68 µM
  TGI: 13.4 µM
T-47D breast
  GI50: 2.09 µM
  TGI: 12.1 µM
TK-10 renal
  GI50: 12.9 µM
  TGI: 25.8 µM
U251 CNS
  GI50: 2.92 µM
  TGI: 15.2 µM
UACC-257 melanoma
  GI50: 9.96 µM
  TGI: 21.8 µM
UACC-62 melanoma
  GI50: 12.2 µM
  TGI: 26.9 µM
UO-31 renal
  GI50: 4.76 µM
  TGI: 19 µM
